For 14 compounds, IC50 and MIC results are on record in patent US20250171400A1, “AZA-HETEROCYCLYL CARBOXAMIDE AND RELATED COMPOUNDS AND THEIR USE IN TREATING MEDICAL CONDITIONS” (X-BIOTIX THERAPEUTICS, INC., priority 2021, published 2025).

≈ marks a conversion by molar mass, not a printed value. Read-outs that look alike come from different tables or passages of the source.

One assay deals with E. coli LpxC (Escherichia coli (strain K12), UniProt P0A725). Description: in vitro substrate deacetylation assay for inhibition of LpxC (ADDA analysis). Format: biochemical. As to conditions: 5 nM E. coli LpxC, 2.5 μM substrate, 1 hour at room temperature. As for the experimental part: (§1) Exemplary compounds from the above Examples were tested for ability to inhibit LpxC activity using an in vitro substrate deacetylation assay with ADDA™ analysis. Assay procedures and results are described below.
Dilutions of test compound were pre-incubated with 5 nM P. aeruginosa or E. coli LpxC for 10 minutes at room temperature in 50 mM NaH2PO4, 500 mM sucrose, 0.2 mg/mL BSA, pH 7.2 and <1% DMSO. Reactions were initiated by the addition of 2× substrate (UDP-3-O—(R-3-hydroxydecanoyl)-N-acetylglucosamine, Carbosynth Ltd, UK, for P. aeruginosa LpxC and UDP-3-O—(R-3-hydroxymyristoyl)-N-acetylglucosamine, BOC Sciences, USA, for E. coli LpxC), in 50 mM NaH2PO4, 0.5 mg/mL BSA, pH 7.2, to a final concentration of 2.5 μM. Reactions proceeded for 1 hour at room temperature prior to quenching with and equal volume of 2% acetic acid.
For ADDA™ analysis, an aliquot of assay sample was withdrawn from each well of the 384-well plate and applied to a Hypercarb cartridge (Optimize Technologies, USA) under conditions designed to retain analytes of interest. Analytes were eluted using 1:1:2 acetone:acetonitrile:water containing 5 mM ammonium acetate then analysed by triple-quadrupole mass spectrometry. Mass spectrometry was carried out using electrospray ionization in negative ion mode. Daughter ion peaks representing detected substrate (P. aeruginosa: parent Q1 mass=775.8 amu, daughter Q3 mass=384.7 amu E. coli: parent Q1 mass=833.0 amu, daughter Q3 mass=385.0 amu, collision energy=analyte specific, dwell time=50 ms) were identified using a multiple-reaction monitoring protocol.
Total activity (0% inhibition) was obtained from reactions containing no compound, and 100% inhibition is defined as reactions in the presence of 1 μM CHIR-090 (N-[(1S,2R)-2-hydroxy-1-[(hydroxyamino)carbonyl]propyl]-4-[2-[4-(4-morpholinylmethyl)phenyl]ethynyl]-benzamide). For IC50 determinations, peak areas of the substrate and product were compared to compute the proportion of substrate reacted by the LpxC enzyme at each compound concentration. The fractional activity was converted to percentage inhibition and plotted against compound concentration in ActivityBase™ and fit using a four-parameter logistic using non-linear regression to yield the IC50 value.

A further assay deals with P. aeruginosa LpxC (Pseudomonas aeruginosa (strain ATCC 15692 / DSM 22644 / CIP 104116 / JCM 14847 / LMG 12228 / 1C / PRS 101 / PAO1), UniProt P47205). Description: biochemical. Format: biochemical. As to conditions: 5 nM P. aeruginosa LpxC, 2.5 μM substrate, 1 hour at room temperature. On the procedure:
as §1
For ADDA™ analysis, an aliquot of assay sample was withdrawn from each well of the 384-well plate and applied to a Hypercarb cartridge (Optimize Technologies, USA) under conditions designed to retain analytes of interest. Analytes were eluted using 1:1:2 acetone:acetonitrile:water containing 5 mM ammonium acetate then analysed by triple-quadrupole mass spectrometry. Mass spectrometry was carried out using electrospray ionization in negative ion mode.
For IC50 determinations, peak areas of the substrate and product were compared to compute the proportion of substrate reacted by the LpxC enzyme at each compound concentration.

Assay [1] relates to wild-type E. coli BW25113. Description: broth microdilution minimum inhibition concentration assay. Format: cell-based. Conditions: Escherichia coli; wild-type E. coli BW25113, 37° C. 16-20 h; read-out: E. coli WT MIC. On the procedure: (§2) Exemplary compounds from the above Examples were tested to determine their minimum inhibitory concentration (MIC) for exemplary strains of Eschericia and Pseudomonas bacteria using broth microdilution methods. Assay procedures and results are described below.
(§3) Broth microdilution assays were conducted according to Clinical and Laboratory Standards Institute guidelines (CLSI, M07-A11: Clinical and Laboratory Standards Institute. Methods for Dilution Antimicrobial Susceptibility Tests for Bacteria that Grow Aerobically; Approved Standard—11th Edition. Wayne, PA: CLSI, 2018.). Briefly, a 0.5 McFarland standard suspension was made from bacterial isolates on non-selective, solid media. The inocula were adjusted to give a bacterial concentration of 1×10^6 CFU/mL. Serial doubling-dilutions of each compound were prepared in cation-adjusted Mueller-Hinton broth (Sigma-Aldrich) in 96-well microdilution plates. A 50 μL aliquot of the inoculum was added to each microdilution plate and, within 15 minutes, incubated at 37° C. in air for 16-20 h. […] The test was controlled by the determination of piperacillin MIC against both E. coli ATCC 25922 and P. aeruginosa ATCC 27853 and ensuring accordance with the ranges published in CLSI supplementary document M100 (CLSI, M100Ed29: Clinical and Laboratory Standards Institute. Performance Standards for Antimicrobial Susceptibility Testing, 29th Edition. Wayne, PA: CLSI, 2018.).
(§4) Multiple enterobacteriaceae strains were tested, including E. coli ATCC 25922 and K. pneumoniae ATCC 43816. WT E. coli BW25113 was tested with an isogenic mutant deficient in acrA mediated efflux by clean deletion. WT P. aeruginosa PAO1 was tested with an isogenic mutant deficient in MexA mediated efflux by clean deletion.
(§5) Experimental results are provided in Table 4, which provides MIC values for wild-type E. coli BW25113 (“E. coli WT MIC”), an isogenic mutant deficient in acrA mediated efflux by clean deletion (“E. coli KO MIC”), wild-type P. aeruginosa PAO1 (“P. aeruginosa WT MIC”), and an isogenic mutant deficient in MexA mediated efflux by clean deletion (“[…]”).
Background: Dilution methods test growth across graded concentrations, often in twofold steps.

Assay [2] relates to E. coli BW25113 isogenic mutant deficient in acrA mediated efflux. Described as above. Format: cell-based. Conditions: Escherichia coli, BW25113, read-out: E. coli KO MIC. As for the experimental part:
as §2, §3, §4, §5

Assay [3] concerns wild-type P. aeruginosa PAO1. The description is as above. Format: cell-based. Conditions: Pseudomonas aeruginosa. On the procedure:
as §2, §3, §4, §5

The subject of assay [4] is P. aeruginosa PAO1 isogenic mutant deficient in MexA mediated efflux. Described as above. Format: cell-based. Conditions: Pseudomonas aeruginosa, PAO1, read-out: P. aeruginosa KO MIC. On the procedure: as §2, §3, §4, §5
The mark [5] stands for this setting: PAO1, read-out: P. aeruginosa WT MIC.
Where [6] appears, read: wild-type P. aeruginosa PAO1, 37° C. 16-20 h, read-out: P. aeruginosa WT MIC.

Chain of E. coli LpxC (P0A725 whole entry): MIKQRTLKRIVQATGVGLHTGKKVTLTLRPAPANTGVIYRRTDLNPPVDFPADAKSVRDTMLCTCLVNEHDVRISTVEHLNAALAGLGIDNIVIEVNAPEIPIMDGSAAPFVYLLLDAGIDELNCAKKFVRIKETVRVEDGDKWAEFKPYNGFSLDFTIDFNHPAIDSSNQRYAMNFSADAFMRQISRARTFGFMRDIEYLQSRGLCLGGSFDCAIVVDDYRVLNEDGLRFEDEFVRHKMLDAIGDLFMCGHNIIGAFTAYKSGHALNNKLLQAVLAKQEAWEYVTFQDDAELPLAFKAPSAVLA

Turning to `CC(C)C(=O)N1C[C@H](NC(=O)[C@@H]2C[C@H](F)CN2)C[C@@H]1C(=O)NCc1ccc(C#Cc2ccc(CN3CCOCC3)cc2)cc1` [Example 9D], the values for the IC50 at E. coli LpxC and against P. aeruginosa LpxC were less than 500 nM and less than 50 nM, respectively. Moreover, the minimum inhibitory concentration (MIC) in assay [1] is 20 to 100 µM (≈ 12.1 to 60.4 µg/mL); in assay [2] it was less than 20 µM; in assay [3] (setting [5]) it was greater than 100 µM; in assay [4], less than 20 µM.
As to `CS(=O)(=O)N1C[C@H](NC(=O)[C@@H]2C[C@H](F)CN2)C[C@@H]1C(=O)NCc1ccc(C#Cc2ccc(CN3CCOCC3)cc2)cc1` [Example 9AI, (2R,4R)-4-((2S,4S)-4-Fluoropyrrolidine-2-carboxamido)-1-(methylsulfonyl)-N-(4-((4-(morpholinomethyl)phenyl)ethynyl)benzyl)pyrrolidine-2-carboxamide], the IC50 was less than 500 nM against E. coli LpxC and less than 50 nM on P. aeruginosa LpxC. The minimum inhibitory concentration (MIC) in assay [1] was greater than 100 µM; in assay [2] it was 20 to 100 µM (≈ 12.2 to 61.2 µg/mL); in assay [3] (setting [6]), greater than 100 µM; in assay [4], less than 20 µM.
Consider `CC(C)C(=O)N1C[C@H](NC(=O)[C@@H]2C[C@H](F)CN2)C[C@@H]1C(=O)NCc1ccc(C#CC2CC2)cc1` [Example 9BG], for which the results for the half-maximal inhibitory concentration (IC50) against E. coli LpxC and against P. aeruginosa LpxC were greater than 10000 nM and 100 to 1000 nM, respectively. For the same compound, the MIC in assay [1], in assay [2], in assay [3] (setting [5]) and in assay [4] was greater than 100 µM in each case.
In the case of `NCCCC(=O)N1C[C@H](NC(=O)[C@@H]2C[C@H](F)CN2)C[C@@H]1C(=O)NCc1ccc(C#CC#CC2CC2)cc1` [Example 9O], the half-maximal inhibitory concentration (IC50) lay within 2500 to 10000 nM at E. coli LpxC and 50 to 100 nM against P. aeruginosa LpxC. Also, the minimum inhibitory concentration (MIC) in assay [1], in assay [2], in assay [3] (setting [5]) and in assay [4] was greater than 100 µM in each case.
Take `CC(C)C(=O)N1C[C@H](NC(=O)[C@H]2NCC[C@H]2O)C[C@@H]1C(=O)NCc1ccc(C#CC#CC2CC2)cc1` [Example 9W, (2R,4R)—N-(4-(cyclopropylbuta-1,3-diyn-1-yl)benzyl)-4-((2S,3R)-3-hydroxypyrrolidine-2-carboxamido)-1-isobutyrylpyrrolidine-2-carboxamide]: the concentration for half-maximal inhibition (IC50) is greater than 10000 nM against E. coli LpxC and 100 to 1000 nM on P. aeruginosa LpxC. Besides, the minimal inhibitory concentration (MIC) in assay [1], in assay [2], in assay [3] (setting [5]) and in assay [4] was greater than 100 µM throughout.
With `CC(C)C(=O)N1C[C@H](NC(=O)[C@@H]2C[C@H](C#N)CN2)C[C@@H]1C(=O)NCc1ccc(C#CC#CC2CC2)cc1` [Example 9AE], the IC50 on E. coli LpxC was 500 to 2500 nM; on P. aeruginosa LpxC it was less than 50 nM. Moreover, the MIC in assay [1] is greater than 100 µM; in assay [2], greater than 100 µM; in assay [3] (setting [6]) it was greater than 100 µM; in assay [4], 20 to 100 µM (≈ 9.99 to 50 µg/mL).
As to `CC(C)C(=O)N1C[C@H](NC(=O)[C@@H]2C[C@H](F)CN2)C[C@@H]1C(=O)NCc1ccc(C#CC#CC2CC2)cc1` [Example 9B], the figures for the IC50 at E. coli LpxC and at P. aeruginosa LpxC were 500 to 2500 nM and less than 50 nM, respectively. The minimal inhibitory concentration (MIC) in assay [1] is greater than 100 µM; in assay [2] it was 20 to 100 µM (≈ 9.85 to 49.3 µg/mL); in assay [3] (setting [5]), greater than 100 µM; in assay [4] it was less than 20 µM.
On to `CC(C)C(=O)N1C[C@H](NC(=O)[C@@H]2CC(F)(F)CN2)C[C@@H]1C(=O)NCc1ccc(C#CC#CC2CC2)cc1` [Example 9G], for which the results for the IC50 at E. coli LpxC and on P. aeruginosa LpxC were 500 to 2500 nM and 50 to 100 nM, respectively. Further, the minimum inhibitory concentration (MIC) in assay [1] was greater than 100 µM; in assay [2], 20 to 100 µM (≈ 10.2 to 51.1 µg/mL); in assay [3] (setting [5]), greater than 100 µM; in assay [4], 20 to 100 µM (≈ 10.2 to 51.1 µg/mL).
With `CC(C)C(=O)N1C[C@H](NC(=O)[C@@H]2C[C@H](F)CN2)C[C@@H]1C(=O)NCc1ccc(C#CC#Cc2ccccc2)cc1` [Example 9AT], the IC50 against E. coli LpxC is 500 to 2500 nM; on P. aeruginosa LpxC, less than 50 nM. In addition, the minimum inhibitory concentration (MIC) in assay [1] is greater than 100 µM; in assay [2], less than 20 µM; in assay [3] (setting [6]), greater than 100 µM; in assay [4], less than 20 µM.
As for `CC(C)C(=O)N1C[C@H](NC(=O)[C@@H]2C[C@@H](F)CN2)C[C@@H]1C(=O)NCc1ccc(C#Cc2ccc(CN3CCOCC3)cc2)cc1` [Example 9H], the concentration for half-maximal inhibition (IC50) against E. coli LpxC was in the range of 2500 to 10000 nM; against P. aeruginosa LpxC it was 100 to 1000 nM. Moreover, the minimum inhibitory concentration (MIC) in assay [1], in assay [2], in assay [3] (setting [5]) and in assay [4] was greater than 100 µM in each case.
On to `COCCN(C(=O)[C@@H]1C[C@H](F)CN1)[C@@H]1C[C@H](C(=O)NCc2ccc(C#Cc3ccc(CN4CCOCC4)cc3)cc2)N(C(=O)C2CC2)C1` [Example 9AV, (2R,4R)-1-(Cyclopropanecarbonyl)-4-((2S,4S)-4-fluoro-N-(2-methoxyethyl)pyrrolidine-2-carboxamido)-N-(4-((4-(morpholinomethyl)phenyl)ethynyl)benzyl)pyrrolidine-2-carboxamide], for which the IC50 on E. coli LpxC is greater than 10000 nM; at P. aeruginosa LpxC it was greater than 1000 nM. The MIC in assay [1], in assay [2], in assay [3] (setting [6]) and in assay [4] was greater than 100 µM throughout.
As to `CS(=O)(=O)CCN1C[C@H](NC(=O)[C@@H]2C[C@H](F)CN2)C[C@@H]1C(=O)NCc1ccc(C#CC#CC2CC2)cc1` [Example 9AP], the half-inhibitory concentration (IC50) was 500 to 2500 nM against E. coli LpxC and 100 to 1000 nM against P. aeruginosa LpxC. Moreover, the MIC in assay [1], in assay [2], in assay [3] (setting [5]) and in assay [4] was greater than 100 µM throughout.
Regarding `O=C(NC[C@H]1C[C@@H](NC(=O)[C@@H]2C[C@H](F)CN2)CN1C(=O)C1CC1)c1ccc(C#Cc2ccc(CN3CCOCC3)cc2)cc1` [Example 9AS], the IC50 was less than 500 nM on E. coli LpxC and less than 50 nM against P. aeruginosa LpxC. Besides, the MIC is less than 20 µM in assay [1], less than 20 µM in assay [2], greater than 100 µM in assay [3] (setting [6]) and less than 20 µM in assay [4].
With `C[C@H](CN)C(=O)N1C[C@H](NC(=O)[C@@H]2C[C@H](F)CN2)C[C@@H]1C(=O)NCc1ccc(C#CC#CC2CC2)cc1` [Example 9N], the IC50 fell in the range of 500 to 2500 nM on E. coli LpxC and 50 to 100 nM against P. aeruginosa LpxC. The minimal inhibitory concentration (MIC) in assay [1], in assay [2], in assay [3] (setting [5]) and in assay [4] was greater than 100 µM in each case.

The term IC50 denotes the concentration at which inhibition is half-maximal. The term MIC denotes the lowest concentration found to suppress growth.
